≈ marks a conversion by molar mass, not a printed value. Where “and” joins values, the source holds several entries; their conditions need not be identical. Equal values may be shown once. Read-outs that look alike come from different tables or passages of the source.
Columns and labels:
[1] = In vivo pharmacokinetic trial in rat (gavage and intravenous injection); design: species or system SD male rats
Procedure: The tested compound was Compound 7, using two administration routes (gavage and intravenous injection).
(§1) Gavage: four healthy SD male rats weighing 200-250 g were given a dose of 15 mg/kg, with an administered volume of 10 mL/kg. And the compound was prepared as 0.5% CMC—Na. The animals were fasted for 12 hours and had free access to water before administration, 0.3 mL of venous blood was sampled through retrobulbar venous plexus at 0.25, 0.5, 1, 0, 2.0, 3.0, 4.0, 5.0, 7.0, 9.0, 24, and 48 hours after administration and collected in heparinized test tubes, which is subjected to centrifugation at 3500 rpm for 10 min to separate the plasma, and stored at −20° C. for testing.
as §1, with “Intravenous injection: two” for “Gavage: four”, “using DMSO, Tween 80 and deionized water.” for “as 0.5% CMC—Na.”, “5 min, 15 min,” for “0.25,”, “1.0,” for “1, 0,”
Concentration of Compound 7 in plasma was determined using liquid chromatography-tandem mass spectrometry.

[2] = test system: methicillin-resistant Staphylococcus aureus (MRSA); assay: In vivo antibacterial activity in mice infected with MRSA; design: species or system Kunming mice; conditions: for ED50: Staphylococcus aureus
Excerpt: Experimental strains: the bacteria used for infecting animals was methicillin-resistant Staphylococcus aureus (MRSA), which was clinically isolated pathogenic bacteria collected in Nanjing area in 2009, and re-identified by the API method.
Experimental animals: Healthy Kunming mice of SPF grade and weighing 18-22 g were chosen, and male and female were 50% each, and they were supplied by animal breeding office of Pharmacology Laboratory, China Pharmaceutical University.
Test method of infection and treatment: The experimental animals were evenly grouped by sex and weight, each group had 10 mice, including 50% of male and female, respectively. Intraperitoneal injection of bacteria solution was performed among animals at 0.5 mL/animal. One hour after infection, the tested drug solution (Compound 7 of the present invention and the positive control drug LZ) of different concentrations were given to each animal by oral gavage or intravenous injection at 0.5 mL/20 g, respectively. For mice receiving oral gavage, another gavage was given 4 hours after the first dose, observation was performed after administration, and death was recorded. An infected control group was set up for the same group, and the number of the deaths within seven days after infection was recorded.
Experimental data processing: median effective dose ED50 and 95% confidence limits were calculated by Bliss for in vivo protective effect of each tested drug among mice infected with tested strain.

[3] = test system: Enterococcus (6 strains); assay: MIC by agar dilution, Enterococcus; assay type: cell-based; conditions: 35° C., 16 hours
Procedure: (§2) Test method: minimal inhibitory concentration (MIC) of series of compounds of the present invention and the positive control drug linezo lid against the tested strains was determined using agar dilution method (Antimicrob. Agents and Chemother., 40, 1996. 720-726). The bacteria was inoculated on the surface of agar plates with different drug concentrations using a multi-point inoculation instrument (Denley A400). Inoculum of each point was about 10^6 CFU/mL, and inoculation was performed at 35° C. for 16 hours to get observation. The minimal concentration of a drug contained in the plate medium without bacteria growth was considered as the minimal inhibitory concentration (MIC value) of the drug against bacteria.
(§3) Tested strains: the tested strains were clinically isolated pathogenic bacteria collected in the Nanjing area, and re-identified by conventional methods before use. 31 pathogenic bacteria are selected, and strain serial numbers were as following: six enterococci; five Staphylococcus aureus sensitive strains; five Staphylococcus epidermidis sensitive strains; six Staphylococcus aureus drug-resistant strains; five Staphylococcus epidermidis drug-resistant strains; four pneumococcus drug-resistant strains.
(§4) At first, tested compounds were added into 2 mL of DMSO, which could facilitate full dissolution, and then sterile double distilled water was added to a desired concentration; 20 mL MH medium in heat-melted to liquid was added to each of plates with drug solution, so that the final drug concentrations in the plates were 64, 32, 16, 8, 4, 2, 1, 0.5, 0.25, 0.125, 0.0625 and 0.031 μg/mL.
(§5) The positive control group was LZ (linezolid, trade name Zyvox, which was approved by the FDA in 2000 to be first launched in the United States and is the first and only oxazolidinone antibacterial drug permitted to be used in clinical practice at present).

[4] = test system: Staphylococcus aureus sensitive strain (5 strains); assay: MIC by agar dilution, Staphylococcus aureus sensitive strains; assay type: cell-based; conditions: 35° C., 16 hours
Procedure: as §2, §3, §4, §5

[5] = test system: Staphylococcus epidermidis drug-resistant strain (5 strains); assay: MIC by agar dilution, Staphylococcus epidermidis drug-resistant strains; assay type: cell-based; conditions: 35° C., 16 hours
Procedure: as §2, §3, §4, §5

[6] = test system: Staphylococcus epidermidis sensitive strain (5 strains); assay: MIC by agar dilution, Staphylococcus epidermidis sensitive strains; assay type: cell-based; design: unit not given here; conditions: 35° C., 16 hours
Procedure: as §2, §3, §4, §5

[7] = test system: Staphylococcus aureus drug-resistant strain (6 strains); assay: MIC by agar dilution, Staphylococcus aureus drug-resistant strains; assay type: cell-based; design: unit not given here; conditions: 35° C., 16 hours
Procedure: as §2, §3, §4, §5

[8] = test system: Pneumococcus drug-resistant strain (4 strains); assay: MIC by agar dilution, pneumococcus drug-resistant strains; assay type: cell-based; design: unit not given here; conditions: 35° C., 16 hours
Procedure: as §2, §3, §4, §5

[9] = gavage 15 mg/kg, individual animals No. 1-4, 15 mg/kg
[10] = gavage 15 mg/kg, mean of 4 animals
[11] = intravenous injection 15 mg/kg, individual animals No. 5-6, 15 mg/kg
[12] = intravenous injection 15 mg/kg, mean of 2 animals
[13] = male, SD, plasma, iv, 15 mg/kg, intravenous injection 15 mg/kg, individual animals No. 5-6
[14] = male, SD, plasma, po, 15 mg/kg, gavage 15 mg/kg, individual animals No. 1-4
[15] = male, SD, plasma, po, 15 mg/kg, gavage 15 mg/kg, mean of 4 animals

For `CC(=O)NC[C@@H]1OC(=O)N2c3ccc(-c4ccc(C#N)nc4)cc3OC[C@@H]12` [Compound 7, N-(((3S,3aS)-7-(6-cyanopyridin-3-yl)-1-oxo-1,3,3a,4-tetrahydrobenzo[b]oxazole-[3,4-d][1,4]oxazin-3-yl)methyl)acetamide], the metabolic properties ([1]; 15 mg/kg gavage and intravenous injection) was “good metabolic properties”, the AUC0-t [1, 9] was 57191 ng·h/mL and 61593 ng·h/mL and 79448 ng·h/mL and the “AUC0-∞” value [1, 9] was 57255 ng·h/mL and 61983 ng·h/mL and 79622 ng·h/mL. The CLz [1, 9] was 3.73 mL/min/kg and 4.37 mL/min/kg and 4.03 mL/min/kg and 3.13 mL/min/kg, the Cmax [1, 9] was 3958 ng/mL and 4772 ng/mL and 6269 ng/mL and the MRT [1, 9] was 8.65 h and 8.79 h and 9.09 h. For the same compound, the Tmax [1, 9] was 2.0 h and 5.0 h, the Vz [1, 9] was 1.81 L/kg and 1.79 L/kg and 2.22 L/kg and 1.44 L/kg and the t1/2 [1, 9] was 4.74 h and 6.36 h and 5.31 h. It also gave a CLz [1, 10] of 3.82 mL/min/kg, a Vz [1, 10] of 1.82 L/kg and a Tmax ([1]; intravenous injection 15 mg/kg, individual animals No. 5-6) of 2.0 h. For the same compound, the AUC0-t [1, 11] was 87218 ng·h/mL, the “AUC0-∞” value [1, 11] was 87475 ng·h/mL and the CLz [1, 11] was 3.28 mL/min/kg and 2.85 mL/min/kg. For the same compound, the MRT [1, 11] was 8.77 h, the Vz [1, 11] was 1.42 L/kg and the t1/2 [1, 11] was 5.72 h. The “AUC0-∞” value [1, 12] was 81844 ng·h/mL, the CLz [1, 12] was 3.07 mL/min/kg and the Tmax [1, 12] was 2.0 h. The t1/2 [1, 12] was 5.58 h, the AUC(0-inf) [1, 13] was 76200 ng·h/mL and the half-life [1, 13] was 5.44 h. It also gave an AUC0-t ([1]; male, SD, plasma, iv, 15 mg/kg, intravenous injection 15 mg/kg, individual animals No. 5-6, read-out: AUC0-t) of 76100 ng·h/mL, a Cmax ([1]; male, SD, plasma, iv, 15 mg/kg, intravenous injection 15 mg/kg, individual animals No. 5-6, read-out: Cmax) of 7510 ng/mL and an MRT ([1]; male, SD, plasma, iv, 15 mg/kg, intravenous injection 15 mg/kg, individual animals No. 5-6, read-out: MRT) of 7.98 h. It also gave a Vd ([1]; male, SD, plasma, iv, 15 mg/kg, intravenous injection 15 mg/kg, individual animals No. 5-6, read-out: Vz) of 1.55 L/kg, an AUC0-t ([1]; male, SD, plasma, iv, 15 mg/kg, intravenous injection 15 mg/kg, mean of 2 animals, read-out: AUC0-t) of 81600 ng·h/mL and a Cmax ([1]; male, SD, plasma, iv, 15 mg/kg, intravenous injection 15 mg/kg, mean of 2 animals, read-out: Cmax) of 7510 ng/mL. The MRT ([1]; male, SD, plasma, iv, 15 mg/kg, intravenous injection 15 mg/kg, mean of 2 animals, read-out: MRT) was 8.37 h, the Vd ([1]; male, SD, plasma, iv, 15 mg/kg, intravenous injection 15 mg/kg, mean of 2 animals, read-out: Vz) was 1.48 L/kg and the AUC(0-inf) [1, 14] was 67100 ng·h/mL. It also gave a half-life [1, 14] of 5.6 h, an AUC0-t ([1]; male, SD, plasma, po, 15 mg/kg, gavage 15 mg/kg, individual animals No. 1-4, read-out: AUC0-t) of 66900 ng·h/mL and a Cmax ([1]; male, SD, plasma, po, 15 mg/kg, gavage 15 mg/kg, individual animals No. 1-4, read-out: Cmax) of 5450 ng/mL. For the same compound, the MRT ([1]; male, SD, plasma, po, 15 mg/kg, gavage 15 mg/kg, individual animals No. 1-4, read-out: MRT) was 7.96 h, the AUC(0-inf) [1, 15] was 66500 ng·h/mL and the half-life [1, 15] was 5.5 h. For the same compound, the AUC0-t ([1]; male, SD, plasma, po, 15 mg/kg, gavage 15 mg/kg, mean of 4 animals, read-out: AUC0-t) was 66300 ng·h/mL, the Cmax ([1]; male, SD, plasma, po, 15 mg/kg, gavage 15 mg/kg, mean of 4 animals, read-out: Cmax) was 5110 ng/mL and the MRT ([1]; male, SD, plasma, po, 15 mg/kg, gavage 15 mg/kg, mean of 4 animals, read-out: MRT) was 8.62 h. For the same compound, the Tmax ([1]; male, SD, plasma, po, 15 mg/kg, gavage 15 mg/kg, mean of 4 animals, read-out: Tmax) was 4 h, the bioavailability ([1]; male, SD, plasma, po, gavage 15 mg/kg, calculated as AUC0-t, read-out: F (absolute bioavailability)) was 81.2% and the ED50 ([2]; MRSA) was 5.53 mg/kg. The ED50 ([2]; MRSA, ip) was 5.92 mg/kg and the “in vivo activity compared with control drug LZ” value ([2]; mouse model infected with MRSA) was “significantly better than that of the control drug LZ”.
In the case of `N#Cc1ccc(-c2ccc3c(c2)OC[C@H]2[C@@H](Cn4ccnn4)OC(=O)N32)cn1` [Compound 49, (3R,3aS)-3-((1H-1,2,3-triazol-1-yl)methyl)-7-(6-cyanopyridin-3-yl)-3a,4-dihydrobenzo[b]oxazole[3,4-d][1,4]oxazine-1(3H)-one], the “MIC, Enterococcus (6 strains)” value [3] is reported as 500 µM (≈ 187 µg/mL), the “MIC, Staphylococcs aureus sensitive strain (5 strains)” value [4] is reported as 500 µM (≈ 187 µg/mL) and the “MIC, Staphylococcus epidermidis drug-resistant strain (5 strains)” value [5] is reported as 250 µM (≈ 93.6 µg/mL). For the same compound, the “MIC, Staphylococcus epidremidis sensitive strain (5 strains)” value [6] was 0.25, the “MIC, Staphylococcus aureus drug-resistant strain (6 strains)” value [7] was 0.25 and the “MIC, Pneumococcus drug-resistant strain (4 strains)” value (from here on “MIC … (4 strains)”) [8] was 0.5.
For `Cn1nnnc1-c1ccc(-c2ccc3c(c2)OC[C@H]2[C@@H](Cn4ccnn4)OC(=O)N32)cn1` [Compound 51, (3R,3aS)-3-((1H-1,2,3-triazol-1-yl)methyl)-7-(6-(1-methyl-1H-tetrazol-5-yl)pyridin-3-yl)-3a,4-dihydrobenzo[b]oxazole[3,4-d][1,4]oxazine-1(3H)-one], the “MIC, Enterococcus (6 strains)” value [3] was 500 µM (≈ 216 µg/mL), the “MIC, Staphylococcs aureus sensitive strain (5 strains)” value [4] was 250 µM (≈ 108 µg/mL) and the “MIC, Staphylococcus epidermidis drug-resistant strain (5 strains)” value [5] was 500 µM (≈ 216 µg/mL). The “MIC, Staphylococcus epidremidis sensitive strain (5 strains)” value [6] was 0.5, the “MIC, Staphylococcus aureus drug-resistant strain (6 strains)” value [7] was 0.5 and the “MIC … (4 strains)” value [8] was 0.5.
Compound `CC(=O)NC[C@H]1CN(c2ccc(N3CCOCC3)c(F)c2)C(=O)O1` [LZ, linezolid, reference compound] has an ED50 ([2]; ip, mice infected i.p. with MRSA, p.o (gavage 1 h after infection and again 4 h after first dose), deaths within seven days, read-out: ED50) of 8.5 mg/kg and an ED50 ([2]; mice infected i.p. with MRSA, iv 1 h after infection, deaths within seven days, read-out: ED50) of 8.51 mg/kg.
For “N(((3S,3aS)-7-(6-(4-methyl piperazin-1-yl)pyridin-3-yl)-1-oxo-1,3,3a,4-tetrahydrobenzo[b]oxazole-[3,4-d][1,4]oxazin-3-yl)methyl)acetamide [Compound 62]”, the “MIC, Enterococcus (6 strains)” value [3] was 500 µM, the “MIC, Staphylococcs aureus sensitive strain (5 strains)” value [4] was 500 µM and the “MIC, Staphylococcus epidermidis drug-resistant strain (5 strains)” value [5] was 500 µM. For the same compound, the “MIC, Staphylococcus epidremidis sensitive strain (5 strains)” value [6] was 0.5, the “MIC, Staphylococcus aureus drug-resistant strain (6 strains)” value [7] was 0.5 and the “MIC … (4 strains)” value [8] was 0.5.
